Reference: patent US8217055B2, “Pyrido-pyrazine derivatives useful as herbicidal compounds” (Syngenta Crop Protection LLC, priority 2006, dated 2012)

Key:
Experiment in all cases: Example B2 herbicidal action, post-emergence, pots in glasshouse, evaluated after 13 days (10=total damage to plant; 0=no damage to plant)
Format in all cases: in vivo
Amaranthus retroflexus = test system: Amaranthus retroflexus
Experimental: (§1) Seeds of a variety of test species were sown in standard soil in pots. After 8 days cultivation (post-emergence) under controlled conditions in a glasshouse (at 24/16° C., day/night; 14 hours light; 65% humidity), the plants were sprayed with an aqueous spray solution derived from the formulation of the technical active ingredient in acetone/water (50:50) solution containing 0.5% Tween 20 (polyoxyethelyene sorbitan monolaurate, CAS RN 9005-64-5). The test plants were then grown in a glasshouse under controlled conditions in a glasshouse (at 24/16° C., day/night; 14 hours light; 65% humidity) and watered twice daily. After 13 days, the test was evaluated (10=total damage to plant; 0=no damage to plant).

Echinochloa crus-galli = test system: Echinochloa crus-galli
Experimental: as §1

Setaria faberi = test system: Setaria faberi
Experimental: as §1

Solanum nigrum = test system: Solanum nigrum
Experimental: as §1

Ipomea hederaceae = test system: Ipomea hederaceae
Experimental: as §1

Row | Structure (SMILES) | AMARE damage score (10=total damage to plant; 0=no damage to plant) (Amaranthus retroflexus; rate 1000 g/ha) | ECHCG damage score (10=total damage to plant; 0=no damage to plant) (Echinochloa crus-galli; rate 1000 g/ha) | SETFA damage score (10=total damage to plant; 0=no damage to plant) (Setaria faberi; rate 1000 g/ha) | SOLNI damage score (10=total damage to plant; 0=no damage to plant) (Solanum nigrum; rate 1000 g/ha) | IPOHE damage score (10=total damage to plant; 0=no damage to plant) (Ipomea hederaceae; rate 1000 g/ha) | AMARE damage score (10=total damage to plant; 0=no damage to plant) (Amaranthus retroflexus; rate 250 g/ha) | ECHCG damage score (10=total damage to plant; 0=no damage to plant) (Echinochloa crus-galli; rate 250 g/ha) | IPOHE damage score (10=total damage to plant; 0=no damage to plant) (Ipomea hederaceae; rate 250 g/ha) | SETFA damage score (10=total damage to plant; 0=no damage to plant) (Setaria faberi; rate 250 g/ha) | SOLNI damage score (10=total damage to plant; 0=no damage to plant) (Solanum nigrum; rate 250 g/ha)
1 | CC(C)(C)C(=O)Oc1c(-c2c(Cl)cc(C(F)(F)F)cc2Cl)c(=O)n(CC(F)F)c2nccnc12 [A9] | 10 | 7 | 9 | 10 |  |  |  |  |  | 
2 | CC(C)(C)C(=O)Oc1c(-c2ccc(C(F)(F)F)cc2Br)c(=O)n(CC(F)F)c2nccnc12 [A10] | 10 | 4 | 3 | 9 | 5 |  |  |  |  | 
3 | CC(C)(C)C(=O)Oc1c(-c2c(Cl)cc(OC(F)(F)F)cc2Cl)c(=O)n(CC(F)F)c2nccnc12 [A11] | 10 | 9 | 9 | 10 | 10 |  |  |  |  | 
4 | CCc1cc(C)cc(CC)c1-c1c(OC(=O)C(C)C)c2nccnc2n(CC(F)F)c1=O [A12] | 3 | 9 | 10 | 10 | 9 |  |  |  |  | 
5 | CC(C)C(=O)Oc1c(-c2cc(F)ccc2Cl)c(=O)n(CC(F)F)c2nccnc12 [A13] | 10 | 8 | 9 | 10 | 10 |  |  |  |  | 
6 | CC(C)(C)C(=O)Oc1c(-c2cc(F)ccc2Cl)c(=O)n(CC(F)F)c2nccnc12 [A14] | 10 | 7 | 9 | 10 | 10 |  |  |  |  | 
7 | COc1cccc(-c2c(OC(=O)C(C)C)c3nccnc3n(CC(F)F)c2=O)c1OC [A15] | 6 | 8 | 9 | 10 | 9 |  |  |  |  | 
8 | COc1cccc(-c2c(OC(=O)C(C)(C)C)c3nccnc3n(CC(F)F)c2=O)c1OC [A16] | 8 | 3 | 8 | 10 | 7 |  |  |  |  | 
9 | CC(C)(C)C(=O)Oc1c(-c2cc(F)c(Cl)cc2Cl)c(=O)n(CC(F)F)c2nccnc12 [A17] | 3 | 6 | 7 | 5 | 0 |  |  |  |  | 
10 | CC(C)(C)C(=O)Oc1c(-c2c(F)ccc(Br)c2Cl)c(=O)n(CC(F)F)c2nccnc12 [A19] | 10 | 7 | 8 | 10 | 9 |  |  |  |  | 
11 | CC(C)C(=O)Oc1c(-c2cc(F)c(Cl)cc2Cl)c(=O)n(CC(F)F)c2nccnc12 [A20] | 10 | 7 | 8 | 9 | 7 |  |  |  |  | 
12 | COc1ccc(OC(F)(F)F)cc1-c1c(OC(=O)C(C)C)c2nccnc2n(CC(F)F)c1=O [A23] | 10 | 8 | 9 | 10 | 9 |  |  |  |  | 
13 | Cc1cc(C)c(-c2c(OC(=O)C(C)(C)C)c3nccnc3n(CC(F)F)c2=O)c(C)c1 [A25] | 7 | 7 | 7 | 10 | 8 |  |  |  |  | 
14 | CC(C)C(=O)Oc1c(-c2ccccc2OC(F)F)c(=O)n(CC(F)F)c2nccnc12 [A26] | 10 | 2 | 2 | 5 | 5 |  |  |  |  | 
15 | COc1ccc(OC(F)(F)F)cc1-c1c(OC(=O)C(C)(C)C)c2nccnc2n(CC(F)F)c1=O [A27] | 9 | 7 | 7 | 9 | 7 |  |  |  |  | 
16 | CC(C)(C)C(=O)Oc1c(-c2ccccc2OC(F)F)c(=O)n(CC(F)F)c2nccnc12 [A28] | 9 | 1 | 3 | 10 | 8 |  |  |  |  | 
17 | CC(C)(C)C(=O)Oc1c(-c2c(F)ccc(Cl)c2Cl)c(=O)n(CC(F)F)c2nccnc12 [A32] | 10 | 4 | 7 | 10 | 9 |  |  |  |  | 
18 | CC(C)(C)C(=O)Oc1c(-c2cc(F)c(F)cc2Cl)c(=O)n(CC(F)F)c2nccnc12 [A33] | 10 | 4 | 7 | 10 | 7 |  |  |  |  | 
19 | CC(C)(C)C(=O)Oc1c(-c2c(F)cccc2Cl)c(=O)n(CC(F)F)c2nccnc12 [A34] | 10 | 4 | 6 | 10 | 9 |  |  |  |  | 
20 | CC(C)(C)C(=O)Oc1c(-c2cc(Cl)ccc2C(F)(F)F)c(=O)n(CC(F)F)c2nccnc12 [A37] | 6 | 5 | 7 | 5 | 7 |  |  |  |  | 
21 | COc1ccc(Br)cc1-c1c(OC(=O)C(C)(C)C)c2nccnc2n(CC(F)F)c1=O [A38] | 10 | 6 | 8 | 9 | 6 |  |  |  |  | 
22 | CC(C)C(=O)Oc1c(-c2c(Cl)cccc2C(F)(F)F)c(=O)n(CC(F)F)c2nccnc12 [A41] | 10 | 8 | 9 | 10 | 9 |  |  |  |  | 
23 | CC(C)(C)C(=O)Oc1c(-c2cc(Cl)ccc2Cl)c(=O)n(CC(F)F)c2nccnc12 [A42] | 10 | 6 | 7 | 10 | 9 |  |  |  |  | 
24 | CC(C)(C)C(=O)Oc1c(-c2cc(C(F)(F)F)ccc2C(F)(F)F)c(=O)n(CC(F)F)c2nccnc12 [A43] | 10 | 8 | 9 | 9 | 9 |  |  |  |  | 
25 | COc1cc(F)c(F)cc1-c1c(OC(=O)C(C)(C)C)c2nccnc2n(CC(F)F)c1=O [A44] | 9 | 7 | 9 | 10 | 6 |  |  |  |  | 
26 | CCc1ccccc1-c1c(OC(=O)C(C)C)c2nccnc2n(CC(F)F)c1=O [A45] | 10 | 5 | 8 | 10 | 9 |  |  |  |  | 
27 | O=c1c(-c2cc(C(F)(F)F)ccc2Cl)c(O)c2nccnc2n1CC(F)F [B3] |  |  |  |  |  | 10 | 7 | 8 | 7 | 9
